According to US20220081412A1, “QUINOLINYL-PYRAZINE-CARBOXAMIDE COMPOUNDS AND USES THEREOF” (The Regents of the University of Michigan, priority 2018, published 2022):

System: MIA PaCa-2 cells
Assay: Bru-seq analysis for nascent RNA synthesis (log2FC of genes, GSEA gene sets)
Format: cell-based, human
Details: downregulated gene sets, 4 h, MIA PaCa-2 cells

Q: For CCN(CC)CCCC(C)Nc1cnc(C(=O)Nc2cc(C)cc3cccnc23)cn1 (stereo not drawn) [J4, 5-((5-(diethylamino)pentan-2-yl)amino)-N-(6-methylquinolin-8-yl)pyrazine-2-carboxamide], which “NES TURASHVILI_BREAST_LOBULAR_CARCINOMA_VS_DUCTAL_NORMAL_DN” value (C2) is on record?
A: −1.603

Q: What about the “NES ZHANG_TLX_TARGETS_36HR_DN” value (C2) of the same molecule?
A: −2.309

Q: And the “NES ZHANG_TLX_TARGETS_DN” value (C2)?
A: −1.942

Q: What about the “NES ZHENG_FOXP3_TARGETS_IN_T_LYMPHOCYTE_DN” value (C2) of the same molecule?
A: −1.893

Q: What about the “ES GO_BASAL_PART_OF_CELL” value (GO) of the same molecule?
A: −0.526

Q: What about the “ES GO_CELL_SURFACE_RECEPTOR_SIGNALING_PATHWAY_INVOLVED_IN_CELL_CELL_SIGNALING” value (GO) of the same molecule?
A: −0.570

Q: What about the “ES GO_CILIUM_ORGANIZATION” value (GO) of the same molecule?
A: −0.331

Q: And the “ES GO_CYTOKINE_RECEPTOR_ACTIVITY” value (GO)?
A: −0.488

Q: And the “ES GO_DENDRITIC_SHAFT” value (GO)?
A: −0.568

Q: What about the “ES GO_DNA_DEPENDENT_ATPASE_ACTIVITY” value (GO) of the same molecule?
A: −0.369

Q: And the “ES GO_DNA_DEPENDENT_DNA_REPLICATION_MAINTENANCE_OF_FIDELITY” value (GO)?
A: −0.569

Q: And the “ES GO_DNA_DOUBLE_STRAND_BREAK_PROCESSING” value (GO)?
A: −0.551

Q: And the “ES GO_DNA_HELICASE_ACTIVITY” value (GO)?
A: −0.389

Q: And the “ES GO_DNA_REPAIR_COMPLEX” value (GO)?
A: −0.429

Q: And the “ES GO_GLUTAMINE_METABOLIC_PROCESS” value (GO)?
A: −0.569

Q: What about the “ES GO_G_PROTEIN_COUPLED_RECEPTOR_ACTIVITY” value (GO) of the same molecule?
A: −0.476

Q: What about the “ES GO_HOMOPHILIC_CELL_ADHESION_VIA_PLASMA_MEMBRANE_ADHESION_MOLECULES” value (GO) of the same molecule?
A: −0.581

Q: And the “ES GO_MITOTIC_RECOMBINATION” value (GO)?
A: −0.420

Q: And the “ES GO_NEGATIVE_REGULATION_OF_EPITHELIAL_CELL_DIFFERENTIATION” value (GO)?
A: −0.597

Q: What about the “ES GO_PHOSPHOLIPID_TRANSPORTER_ACTIVITY” value (GO) of the same molecule?
A: −0.549

Q: And the “ES GO_POTASSIUM_CHANNEL_COMPLEX” value (GO)?
A: −0.536

Q: And the “ES GO_RECIPROCAL_DNA_RECOMBINATION” value (GO)?
A: −0.450

Q: And the “ES GO_RECOMBINATIONAL_REPAIR” value (GO)?
A: −0.382

Q: What about the “ES GO_REGULATION_OF_ACUTE_INFLAMMATORY_RESPONSE” value (GO) of the same molecule?
A: −0.521

Q: And the “ES GO_REGULATION_OF_MEMBRANE_LIPID_DISTRIBUTION” value (GO)?
A: −0.521

Q: What about the “ES GO_RESPONSE_TO_X_RAY” value (GO) of the same molecule?
A: −0.501

Q: What about the “ES GO_SOMATIC_RECOMBINATION_OF_IMMUNOGLOBULIN_GENE_SEGMENTS” value (GO) of the same molecule?
A: −0.498

Q: What about the “ES GO_SOMITE_DEVELOPMENT” value (GO) of the same molecule?
A: −0.451

Q: And the “ES GO_STRAND_DISPLACEMENT” value (GO)?
A: −0.471

Q: What about the “NES GO_BASAL_PART_OF_CELL” value (GO) of the same molecule?
A: −1.629

Q: What about the “NES GO_CELL_SURFACE_RECEPTOR_SIGNALING_PATHWAY_INVOLVED_IN_CELL_CELL_SIGNALING” value (GO) of the same molecule?
A: −1.653

Q: What about the “NES GO_CILIUM_ORGANIZATION” value (GO) of the same molecule?
A: −1.502

Q: What about the “NES GO_CYTOKINE_RECEPTOR_ACTIVITY” value (GO) of the same molecule?
A: −1.467

Q: And the “NES GO_DENDRITIC_SHAFT” value (GO)?
A: −1.746

Q: And the “NES GO_DNA_DEPENDENT_ATPASE_ACTIVITY” value (GO)?
A: −1.545

Q: And the “NES GO_DNA_DEPENDENT_DNA_REPLICATION_MAINTENANCE_OF_FIDELITY” value (GO)?
A: −1.697

Q: And the “NES GO_DNA_DOUBLE_STRAND_BREAK_PROCESSING” value (GO)?
A: −1.613

Q: And the “NES GO_DNA_HELICASE_ACTIVITY” value (GO)?
A: −1.504

Q: And the “NES GO_DNA_REPAIR_COMPLEX” value (GO)?
A: −1.586

Q: What about the “NES GO_GLUTAMINE_METABOLIC_PROCESS” value (GO) of the same molecule?
A: −1.616

Q: What about the “NES GO_G_PROTEIN_COUPLED_RECEPTOR_ACTIVITY” value (GO) of the same molecule?
A: −1.804

Q: What about the “NES GO_HOMOPHILIC_CELL_ADHESION_VIA_PLASMA_MEMBRANE_ADHESION_MOLECULES” value (GO) of the same molecule?
A: −1.691

Q: And the “NES GO_MITOTIC_RECOMBINATION” value (GO)?
A: −1.547

Q: And the “NES GO_NEGATIVE_REGULATION_OF_EPITHELIAL_CELL_DIFFERENTIATION” value (GO)?
A: −1.799

Q: What about the “NES GO_PHOSPHOLIPID_TRANSPORTER_ACTIVITY” value (GO) of the same molecule?
A: −1.692

Q: What about the “NES GO_POTASSIUM_CHANNEL_COMPLEX” value (GO) of the same molecule?
A: −1.693

Q: And the “NES GO_RECIPROCAL_DNA_RECOMBINATION” value (GO)?
A: −1.485

Q: What about the “NES GO_RECOMBINATIONAL_REPAIR” value (GO) of the same molecule?
A: −1.548

Q: And the “NES GO_REGULATION_OF_ACUTE_INFLAMMATORY_RESPONSE” value (GO)?
A: −1.555

Q: And the “NES GO_REGULATION_OF_MEMBRANE_LIPID_DISTRIBUTION” value (GO)?
A: −1.498

Q: And the “NES GO_RESPONSE_TO_X_RAY” value (GO)?
A: −1.636

Q: And the “NES GO_SOMATIC_RECOMBINATION_OF_IMMUNOGLOBULIN_GENE_SEGMENTS” value (GO)?
A: −1.483

Q: And the “NES GO_SOMITE_DEVELOPMENT” value (GO)?
A: −1.594

Q: And the “NES GO_STRAND_DISPLACEMENT” value (GO)?
A: −1.493

Q: And the “ES HALLMARK_KRAS_SIGNALING_DN” value (HALLMARK)?
A: −0.282

Q: What about the “ES HALLMARK_KRAS_SIGNALING_UP” value (HALLMARK) of the same molecule?
A: −0.230

Q: And the “ES HALLMARK_MYC_TARGETS_V1” value (HALLMARK)?
A: −0.172

Q: And the “ES HALLMARK_MYC_TARGETS_V2” value (HALLMARK)?
A: −0.178

Q: And the “ES HALLMARK_TGF_BETA_SIGNALING” value (HALLMARK)?
A: −0.324

Q: What about the “NES HALLMARK_KRAS_SIGNALING_DN” value (HALLMARK) of the same molecule?
A: −0.992

Q: What about the “NES HALLMARK_KRAS_SIGNALING_UP” value (HALLMARK) of the same molecule?
A: −0.965

Q: And the “NES HALLMARK_MYC_TARGETS_V1” value (HALLMARK)?
A: −0.831

Q: What about the “NES HALLMARK_MYC_TARGETS_V2” value (HALLMARK) of the same molecule?
A: −0.691
